Test results: patent publication US20260263651A1, “WOUND DRESSING” (UNIVERSITY OF SUNDERLAND, priority 2023, published 2026)

Key:
Format in all cases: cell-based
Pseudomonas aeruginosa [1] = assay: Microbiological evaluation of overnight bacteria suspensions, modified alginate wound dressing with absorbed substrate on agar; settings: PSA overnight culture, 24 h incubation at 37° C.
Protocol: (§1) ACTIVHEAL® simply A (10×20 cm) non-adhesive foam samples were provided by Advanced Medical Solutions Ltd. The wound dressings were cut into ~5-10×5-10 mm squares, using an ethanol washed pair of scissors. A maximum of 0.20 g of the material was added into 10 mL DI water, and the pH was adjusted to ~3 by the addition of 0.1 M aq. HCl solution. The solution was stirred for 10 mins at room temperature, followed by the addition of 0.33 g EDC •HCl (1.7 mmol) and the pH was maintained at ~3 by the addition of 0.1 M aq. HCl solution. The solution was stirred at room temperature for 10 mins followed by the addition of 0.88 g compound 8 which was dissolved in DMSO or DMF. The mixture was stirred at room temperature for 48 h. The wound dressings were filtered and were washed with ethanol. To ensure the full removal of any non-coupled amide (8), the foam samples were resuspended in ethanol, stirred for 10 mins and filtered, and this process was repeated until the amide (8) was not detectable from the filtrate (this could be maintained by TLC or HPLC evaluation). The samples were dried in a vacuum oven for 3-4 h.
(§2) The aqueous solution of 3a or 3b was prepared by the following: the desired amount of the enzymatic substrate (3.0 mg for 300 mg/L, 6.0 mg for 600 mg/L, 9.0 mg for 900 mg/L, 15.0 mg for 1500 mg/L, and 30.0 mg for 3000 mg/L) was weighed out on a 4 decimal place balance within ±0.3 mg error limit into a 10 mL volumetric flask and was adjusted to 10.0 mL with DI water. The solutions were absorbed into the foam samples and dried in a vacuum oven at 40° C. overnight.
(§3) To model fluid exudate from a chronic wound, the wound dressing made according to ‘Modification of ActivHeal® Alginate’, above, was placed into an agar plate and the test pathogen was smeared over the surface of the agar.
(§4) The enzymatic substrates were tested in 4 different concentrations (300, 600, 900 and 3000 mg/L) using DI water as a solvent, and the solutions were absorbed into the wound dressing samples, which were dried overnight under vacuum at 40° C.
(§5) Two Gram negative strains (Escherichia coli—EC and Pseudomonas aeruginosa—PSA) and a Gram positive bacteria (Staphylococcus aureus—SA) were evaluated against the dimethyl (3a) and the diethyl (3b) substituted substrate. The overnight cultures were directly smeared from LB broth onto Columbia blood agar without measuring the OD. The wound dressings with the enzymatic substrate absorbed were placed onto the agar and were incubated overnight (see FIGS. 2-7).

Staphylococcus aureus = assay: as above; settings: SA overnight culture, 24 h incubation at 37° C.
Protocol: as §1, §2, §3, §4, §5

Escherichia coli = assay: as above; settings: EC overnight culture, 24 h incubation at 37° C.
Protocol: as §1, §2, §3, §4, §5

Pseudomonas aeruginosa [2] = assay: Microbiological evaluation of standardised bacterial suspensions, modified wound dressing with absorbed substrate on agar; parameters: key to Observable colour change: − indicates no colour change; +− indicates relatively discernible blue colour change; + indicates a moderately strong blue colour change; ++ indicates a strong blue colour change

## CC(C)C[C@H](N)C(=O)Nc1ccc(N(C)C)cc1.Cl [3a, (2S)-2-amino-N-[4-(dimethylamino)phenyl]-4-methyl-pentanamide hydrochloride]
Pseudomonas aeruginosa [1]; substrate 300 mg/L
  Observable colour change: None
Pseudomonas aeruginosa [1]; substrate 600 mg/L
  Observable colour change: Light blue
Pseudomonas aeruginosa [1]; substrate 900 mg/L
  Observable colour change: Blue
Pseudomonas aeruginosa [1]; substrate 3000 mg/L
  Observable colour change: Blue
Staphylococcus aureus; substrate 300 mg/L
  Observable colour change: None
Staphylococcus aureus; substrate 600 mg/L
  Observable colour change: Pale blue
Staphylococcus aureus; substrate 900 mg/L
  Observable colour change: None
Staphylococcus aureus; substrate 3000 mg/L
  Observable colour change: Light blue
Escherichia coli; substrate 300 mg/L
  Observable colour change: Light blue
Escherichia coli; substrate 600 mg/L
  Observable colour change: Light blue
Escherichia coli; substrate 900 mg/L
  Observable colour change: Blue
Escherichia coli; substrate 3000 mg/L
  Observable colour change: Dark blue
Pseudomonas aeruginosa [2]; PSA 10^4, substrate 300 mg/L, 24 h at 37° C.
  Observable colour change: −
Pseudomonas aeruginosa [2]; PSA 10^4, substrate 300 mg/L, 48 h at 37° C.
  Observable colour change: −
Pseudomonas aeruginosa [2]; PSA 10^4, substrate 300 mg/L, 72 h at 37° C.
  Observable colour change: +
Pseudomonas aeruginosa [2]; PSA 10^4, substrate 900 mg/L, 24 h at 37° C.
  Observable colour change: −
Pseudomonas aeruginosa [2]; PSA 10^4, substrate 900 mg/L, 48 h at 37° C.
  Observable colour change: +−
Pseudomonas aeruginosa [2]; PSA 10^4, substrate 900 mg/L, 72 h at 37° C.
  Observable colour change: ++
Pseudomonas aeruginosa [2]; PSA 10^4, substrate 1500 mg/L, 24 h at 37° C.
  Observable colour change: −
Pseudomonas aeruginosa [2]; PSA 10^4, substrate 1500 mg/L, 48 h at 37° C.
  Observable colour change: −
Pseudomonas aeruginosa [2]; PSA 10^4, substrate 1500 mg/L, 72 h at 37° C.
  Observable colour change: ++
Pseudomonas aeruginosa [2]; PSA 10^6, substrate 300 mg/L, 24 h at 37° C.
  Observable colour change: −
Pseudomonas aeruginosa [2]; PSA 10^6, substrate 300 mg/L, 48 h at 37° C.
  Observable colour change: −
Pseudomonas aeruginosa [2]; PSA 10^6, substrate 300 mg/L, 72 h at 37° C.
  Observable colour change: +
Pseudomonas aeruginosa [2]; PSA 10^6, substrate 900 mg/L, 24 h at 37° C.
  Observable colour change: −
Pseudomonas aeruginosa [2]; PSA 10^6, substrate 900 mg/L, 48 h at 37° C.
  Observable colour change: −
Pseudomonas aeruginosa [2]; PSA 10^6, substrate 900 mg/L, 72 h at 37° C.
  Observable colour change: ++
Pseudomonas aeruginosa [2]; PSA 10^6, substrate 1500 mg/L, 24 h at 37° C.
  Observable colour change: −
Pseudomonas aeruginosa [2]; PSA 10^6, substrate 1500 mg/L, 48 h at 37° C.
  Observable colour change: +−
Pseudomonas aeruginosa [2]; PSA 10^6, substrate 1500 mg/L, 72 h at 37° C.
  Observable colour change: +
Pseudomonas aeruginosa [2]; PSA 10^8, 10^6 or 10^4 CFU, after 72 h, every tested substrate concentration
  colour change: moderate or strong blue colour changes
Pseudomonas aeruginosa [2]; PSA 10^8, substrate 300 mg/L, 24 h at 37° C.
  Observable colour change: −
Pseudomonas aeruginosa [2]; PSA 10^8, substrate 300 mg/L, 48 h at 37° C.
  Observable colour change: −
Pseudomonas aeruginosa [2]; PSA 10^8, substrate 300 mg/L, 72 h at 37° C.
  Observable colour change: +
Pseudomonas aeruginosa [2]; PSA 10^8, substrate 900 mg/L, 24 h at 37° C.
  Observable colour change: −
Pseudomonas aeruginosa [2]; PSA 10^8, substrate 900 mg/L, 48 h at 37° C.
  Observable colour change: +
Pseudomonas aeruginosa [2]; PSA 10^8, substrate 900 mg/L, 72 h at 37° C.
  Observable colour change: ++
Pseudomonas aeruginosa [2]; PSA 10^8, substrate 1500 mg/L, 24 h at 37° C.
  Observable colour change: −
Pseudomonas aeruginosa [2]; PSA 10^8, substrate 1500 mg/L, 48 h at 37° C.
  Observable colour change: +
Pseudomonas aeruginosa [2]; PSA 10^8, substrate 1500 mg/L, 72 h at 37° C.
  Observable colour change: ++
Pseudomonas aeruginosa [2]; PSA, substrate 900 or 1500 mg/L, printed in the 48 h paragraph
  colour change: moderate or strong colour change
